Measurements reported in patent US11407741B2, “Compounds and their use as selective inhibitors of caspase-2” (priority 2017, dated 2022).
Where a SMILES comes first, the peptide text is derived from it. [ ]: non-standard residue; d: D form. The star is where a group is joined. Pro(3S-CH2tBu) = CC(C)(C)C[C@H]1CCN[C@@H]1C(=O)O; X4 = CN(Cc1ccccc1)C(=O)/C=C/C(=O)N(CC(=O)O)N*; X3 = O=C(O)CN(N*)C(=O)COc1c(F)cccc1F; Quinaldoyl = O=C(c1ccc2ccccc2n1)*; X1 = c1ncc(CO*)s1

Tested on: hippocampal neurons intoxicated with Aβ1-42 oligomers
Assay: Protection against Abeta neurotoxicity in primary hippocampal neurons in microfluidic chambers
Type: cell-based, mice
Design: key to Protective effect against Aβ toxicity: +: significant protection against a Aβ-induced cell death, Aβ-induced axonal degeneration, Aβ-induced electrophysiological dysfunction, and/or Aβ-induced synapse loss
Conditions: for Protective effect against Aβ toxicity: hippocampal cells pre-incubated 1 h, then Aβ1-42 oligomers
Text: Hippocampus are micro-dissected from E16 embryos of C57B16/J wt mice (Rene Janvier, France) in cold Gey's Balanced Salt Solution (GBSS, Sigma) supplemented with 0.1% glucose (Life technologies).
Dissected structures are digested with papain (20 U/ML in DMEM, Sigma; St. Louis, Mo., USA) and mechanically dissociated in the presence of DNAse. Hippocampal cells are then rinsed and re-suspended in DMEM (Life Technologies, Inc., Gaithersburg, Md., USA) to a final density of 18 million cells/ml in Neurobasal (Life technologies) and Glutamax (0.1% LifeTechnologies) supplemented with B27 (1/50) and penicilline/sptreptomycine 1% (Gibco).
This cell suspension is then used to fill the reservoirs of microfluidic chambers, as described (Peyrin et al, 2011 Lab Chips 11(21):3663; Deleglise et al, 2014 Acta Neuropathologica Comm. 2: 145). Microfluidic chips are placed in plastic Petri dishes containing H20-EDTA to prevent evaporation and incubated at 37° C. in a humid 5% CO2 atmosphere. The culture medium is renewed every seven days.
Oligomeric form of Aβ1-42 (Tocris Bioscience, MN, USA), is produced according to Stine W B et al (2003) in J Biol Chem 278, pp 11612-11622 and can be controlled by electron microscopy as in Deleglise B et al. in Acta Neuropathol Commun. 2014; 2: 145).
Briefly, Aβ1-42 lyophilized peptides are solubilized at 1 mM in 1, 1, 1, 3, 3, 3,-hexafluoro-2-propanol (HFIP, Sigma Aldrich). After 30 min of incubation at RT, HFIP is evaporated for 12 h under chemical hood and peptides are dried for 1 h (with a Speed Vac at 4° C.). Then, 5 mM Aβ peptide stock solutions are obtained by resolubilization at in dimethylsulfoxide (DMSO, Sigma Aldrich). To obtain oligomers, Aβ peptide stock solution is diluted in cold phenol free DMEM-F12 medium (Life Technologies) to a final concentration of 100 μM. The solution is then incubated 24 h at 4° C. Soluble Aβ oligomer fraction is collected from the supernatant after a centrifugation step at 20 000 g (10 min; 4° C.), and stored at −80° C. until use.
After 18 days of culture in micro fluidic chambers, hippocampal cells are pre-incubated for 1 h with compounds of the invention prior diluted in phenol free DMEM-F12 medium or in phenol free DMEM-F12 medium alone as a control solution. Cells are then intoxicated for 3 h to 6 h or 24 h with 10 or 100 nm of Aβ1-42 oligomers (or with phenol free DMEM-F12 medium alone as a control solution). After the intoxication step, cells are fixed in 4% paraformaldehyde (PFA, Sigma; St. Louis, Mo., USA) for 20 min RT, and labelled as explained below to evaluate synapses status, cell death or axonal degeneration.
Briefly, after the fixation step, cultures cells are washed twice with PBS+Azide 0.1% for 5 min and permeabilized for 10 min with 0.2% Triton X-100 and 0.1% BSA (Bovine Serum Albumin, Sigma) in PBS+Azide 0.1%. Saturation step is then realized by incubating cells during 30 min in PBS+Azide 0.1%+BSA1%. Primary antibodies are then added and the samples incubated at 4° C. overnight in PBS. Afterwards, samples are rinsed twice for 5 min with PBS+Azide 0.1% and further incubated with the corresponding secondary antibody together with phalloidin conjugated to Alexa Fluor 555 for 2 h RT. The chips were then rinsed twice with PBS+Azide 0.1%.
The following antibodies are used: rabbit polyclonal anti-MAP-2 (AB5622; 1/400, MILLIPORE), mouse monoclonal Anti-Bassoon SAP7F407; 1:400, Enzo LifeSciences). Species-specific secondary antibodies coupled to Alexa 350, 488 or 500 are used (1/500, Life Technologies, Inc., Gaithersburg, Md., USA). Phalloidin conjugated to Alexa Fluor 555 (1/500, EnzoLifeTechnologies) is used to stain F-actin.
Images are acquired with an Axio-observer Zl (Zeiss, Germany) fitted with a cooled CCD camera (CoolsnapHQ2, Ropert Scientific). The microscope is controlled with Metamorph and Micro-manager software. Images were analyzed using ImageJ software.

Row | Structure (SMILES) | Protective effect against Aβ toxicity | Synapse protection toward Amyloid beta peptide [1-42] oligomers toxicity (FIG. 1) (pretreated at 0.1 μM or 1 μM, Aβ[1-42] oligomers 10 nM, **p<0.01)
1 | CC(C)[C@H](NC(=O)[C@H](CC(=O)O)NC(=O)C(=O)Nc1ccccc1C(C)(C)C)C(=O)N1CC[C@H](CC(C)(C)C)[C@H]1C(=O)NN(CC(=O)O)C(=O)COc1c(F)cccc1F [Compound 6, (S)-3-(2-((2-(tert-butyl)phenyl)amino)-2-oxoacetamido)-4-(((S)-1-((2S,3S)-2-(2-(carboxymethyl)-2-(2-(2,6-difluorophenoxy)acetyl)hydrazinecarbonyl)-3-neopentylpyrrolidin-1-yl)-3-methyl-1-oxobutan-2-yl)amino)-4-oxobutanoic acid] | + | –
2 | CC(C)[C@H](NC(=O)c1ccc2ccccc2n1)C(=O)N[C@@H](CC(=O)O)C(=O)N[C@H](C(=O)N1CC[C@H](CC(C)(C)C)[C@H]1C(=O)N[C@@H](CC(=O)O)C(=O)OCc1cncs1)C(C)C [Compound 3, (S)-4-(((S)-1-((2S,3S)-2-(((S)-3-carboxy-1-oxo-1-(thiazol-5 - ylmethoxy)propan-2-yl)carbamoyl)-3-neopenthylpyrrolidin-1-yl)-3-methyl-1-oxobutan-2-yl)amino)-3-((S)-3-methyl-2-(quinoline-2-carboxamido)butanamido)-4-oxobutanoic acid] (Quinaldoyl-VDV[Pro(3S-CH2tBu)]D-X1) | + | –
3 | CC(C)[C@H](NC(=O)c1ccc2ccccc2n1)C(=O)N[C@@H](CC(=O)O)C(=O)N[C@H](C(=O)N1CC[C@H](CC(C)(C)C)[C@H]1C(=O)NN(CC(=O)O)C(=O)COc1c(F)cccc1F)C(C)C [Compound 4, (S)-4-(((S)-1-((2S,3S)-2-(2-(carboxymethyl)-2-(2-(2,6-difluorophenoxy)acetyl)hydrazinecarbonyl)-3-neopentylpyrrolidin-1-yl)-3-methyl-1-oxobutan-2-yl)amino)-3-((S)-3-methyl-2-(quinoline-2-carboxamido)butanamido)-4-oxobutanoic acid] (Quinaldoyl-VDV[Pro(3S-CH2tBu)]-X3) | + | –
4 | CC(C)[C@H](NC(=O)c1ccc2ccccc2n1)C(=O)N[C@@H](CC(=O)O)C(=O)N[C@H](C(=O)N1CC[C@H](CC(C)(C)C)[C@H]1C(=O)N[C@@H](CC(=O)O)C(=O)COc1c(F)cccc1F)C(C)C (single isomer, unassigned) [Compound 2 enantiomer a] | – | Synapse protection
5 | CC(C)[C@H](NC(=O)c1ccc2ccccc2n1)C(=O)N[C@@H](CC(=O)O)C(=O)N[C@H](C(=O)N1CC[C@H](CC(C)(C)C)[C@H]1C(=O)NN(CC(=O)O)C(=O)/C=C/C(=O)N(C)Cc1ccccc1)C(C)C [Compound 5, (S)-4-(((S)-1-((2S,3S)-2-(2-((E)-4-(benzyl(methyl)amino)-4-oxobut-2-enoyl)-2-(carboxymethyl)hydrazinecarbonyl)-3-neopentylpyrrolidin-1-yl)-3-methyl-1-oxobutan-2-yl)amino)-3-((S)-3-methyl-2-(quinoline-2-carboxamido)butanamido)-4-oxobutanoic acid] (Quinaldoyl-VDV[Pro(3S-CH2tBu)]-X4) | + | –
